This assay addresses human Edg-2 receptor (LPA1 receptor) (Homo sapiens, UniProt Q92633). The assay can be described thus: Edg-2 receptor inhibition by FLIPR calcium fluorescence measurement (LPA-mediated calcium liberation). It is filed as cell-based. The note with it: CHO cells stably overexpressing human Edg-2 receptor; LPA 18:1 100 nM; fluo-4 fluorescence; triplicate; read-out: Inhibitory concentrations IC50 for inhibition of the Edg-2 receptor. The gist of the method: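 CHO cells stably overexpressing human Edg-2 were fluo-4 loaded and pre-incubated ~5 min with compound (≤0.3% DMSO) in HBSS/HEPES/probenecid, pH 7.5. Then LPA 18:1 at 100 nM final was added. Peak calcium fluorescence over ~3 min, baseline-corrected versus DMSO, gave % inhibition in triplicate and IC50.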

pIC50: −log10 of the molar value.

Sequence of human Edg-2 receptor (LPA1 receptor) (Q92633 whole entry): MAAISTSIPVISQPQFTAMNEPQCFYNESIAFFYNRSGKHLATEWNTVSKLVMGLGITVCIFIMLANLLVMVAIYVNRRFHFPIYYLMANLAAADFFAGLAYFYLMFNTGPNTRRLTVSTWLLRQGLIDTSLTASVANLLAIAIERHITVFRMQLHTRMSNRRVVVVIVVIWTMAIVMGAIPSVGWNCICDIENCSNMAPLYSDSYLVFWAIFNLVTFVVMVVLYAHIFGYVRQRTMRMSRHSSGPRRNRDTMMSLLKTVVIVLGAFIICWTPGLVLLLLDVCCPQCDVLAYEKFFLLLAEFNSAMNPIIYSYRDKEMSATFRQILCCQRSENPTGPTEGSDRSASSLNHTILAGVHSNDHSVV

On to `COc1ccc(C(=O)NC2(C(=O)O)Cc3ccccc3C2)cc1Cc1ccccc1` [Example 243, 2-[4-Methoxy-3-benzyl-benzoylamino]-indane-2-carboxylic acid], for which the pIC50 is 4.52 to 6.00. On to `COc1ccc(C(=O)NC2(C(=O)O)Cc3ccccc3C2)cc1OCC1C[C@H]2C=C[C@@H]1C2` (stereo partly drawn) [Example 87], for which the pIC50 is 4.52 to 6.00.

Consider `COc1ccc(C(=O)NC2(C(=O)O)Cc3ccccc3C2)cc1SCCc1cccc(C)c1` [Example 180, 2-[4-Methoxy-3-(2-m-tolyl-ethylsulfanyl)-benzoylamino]-indane-2-carboxylic acid], for which the pIC50 was more than 7.00. The same measure for `COc1ccc(C(=O)NC2(C(=O)O)Cc3ccccc3C2)cc1-c1ccc(OC(C)C)c(C)c1` [Example 341]: 4.52 to 6.00.

With `COc1ccc(C(=O)NC2(C(=O)O)Cc3ccccc3C2)cc1-c1cc(C)cs1` [Example 300], the pIC50 was 6.00 to 7.00.

Turning to `COc1ccc(C(=O)NC2(C(=O)O)Cc3ccccc3C2)cc1OCCc1cccs1` [Example 147], the pIC50 was 6.00 to 7.00. The same measure for `COc1ccc(C(=O)NC2(C(=O)O)Cc3ccccc3C2)cc1-c1ccc2occc2c1` [Example 326]: 6.00 to 7.00.

Regarding `COc1ccc(C(=O)NC2(C(=O)O)Cc3ccccc3C2C)cc1OCCc1cccc(C)c1` (stereo not drawn) [Example 209, 2-[4-Methoxy-3-(2-m-tolyl-ethoxy)-benzoylamino]-1-methyl-indane-2-carboxylic acid], the pIC50 was more than 7.00.

On to `Cc1cccc(CCOc2cc(C(=O)NC3(C(=O)O)Cc4ccccc4C3)ccc2C(F)(F)F)c1` [Example 185, 2-[3-(2-m-Tolyl-ethoxy)-4-trifluoromethyl-benzoylamino]-indane-2-carboxylic acid], for which the pIC50 was more than 7.00. As to `COc1ccc(C(=O)NC2(C(=O)O)Cc3ccccc3C2)cc1-c1cccc(-n2cccn2)c1` [Example 334], the pIC50 is 6.00 to 7.00. As to `COc1ccc(C(=O)NC2(C(=O)O)Cc3ccccc3C2)cc1Cc1ccccc1C` [Example 242, 2-[4-Methoxy-3-(2-methyl-benzyl)-benzoylamino]-indane-2-carboxylic acid], the pIC50 was 6.00 to 7.00. The value for `COc1ccc(C(=O)NC2(C(=O)O)Cc3ccccc3C2)cc1-c1ccc(C(F)(F)F)c(Cl)c1` [Example 322] was more than 7.00; that for `COc1ccc(C(=O)NC2(C(=O)O)Cc3ccccc3C2)cc1OCCc1cc(Cl)ccc1F` [Example 193, 2-{3-[2-(5-Chloro-2-fluoro-phenyl)-ethoxy]-4-methoxy-benzoylamino}-indane-2-carboxylic acid] was more than 7.00. The value for `CSc1ccc(C(=O)NC2(C(=O)O)Cc3ccccc3C2)cc1OCCc1cccc(C)c1` [Example 4, 2-[4-Methylsulfanyl-3-(2-m-tolyl-ethoxy)-benzoylamino]-indane-2-carboxylic acid] was more than 7.00; that for `COc1ccc(C(=O)NC2(C(=O)O)Cc3ccccc3C2)cc1C#Cc1ccc(C(C)(C)C)cc1` [Example 195, 2-[3-(4-tert-Butyl-phenylethynyl)-4-methoxy-benzoylamino]-indane-2-carboxylic acid] was 6.00 to 7.00. The same measure for `COc1ccc(C(=O)NC2(C(=O)O)Cc3ccccc3C2)cc1OCCc1cccc(S(C)(=O)=O)c1` [Example 18, 2-{3-[2-(3-Methanesulfonyl-phenyl)-ethoxy]-4-methoxy-benzoylamino}-indane-2-carboxylic acid]: 4.52 to 6.00; for `COc1cc(C(=O)NC2(C(=O)O)Cc3ccccc3C2)ccc1OCCc1ccccc1Cl` [Example 162, 2-{4-[2-(2-Chloro-phenyl)-ethoxy]-3-methoxy-benzoylamino}-indane-2-carboxylic acid]: 4.52 to 6.00. `COc1cc(Cl)c(C(=O)NC2(C(=O)O)Cc3ccccc3C2)cc1OCCc1cccc(Cl)c1` [Example 105, 2-{2-Chloro-5-[2-(3-chloro-phenyl)-ethoxy]-4-methoxy-benzoylamino}-indane-2-carboxylic acid]: the pIC50 was 6.00 to 7.00.

For the molecule `COc1ccc(C(=O)NC2(C(=O)O)Cc3ccccc3C2)cc1OCC1CC=CCC1` (stereo not drawn) [Example 50], the pIC50 was 6.00 to 7.00. The same measure for `Cc1cccc(CCOc2cc(C(=O)NC3(C(=O)O)Cc4ccccc4C3)ccc2S(C)(=O)=O)c1` [Example 6, 2-[4-Methanesulfonyl-3-(2-m-tolyl-ethoxy)-benzoylamino]-indane-2-carboxylic acid]: 4.52 to 6.00; for `COc1cc(C(=O)NC2(C(=O)O)Cc3ccccc3C2)ccc1OCCc1cccc(C)c1` [Example 252, 2-[3-Methoxy-4-(2-m-tolyl-ethoxy)-benzoylamino]-indane-2-carboxylic acid]: 6.00 to 7.00; for `CNC(=O)c1cccc(-c2cc(C(=O)NC3(C(=O)O)Cc4ccccc4C3)ccc2OC)c1` [Example 323]: 4.52 to 6.00. Regarding `COc1ccc(C(=O)NC2(C(=O)O)Cc3ccccc3C2)cc1-c1cc(C(F)(F)F)ccc1F` [Example 320], the pIC50 is more than 7.00.

Regarding `COc1ccc(CCCCOc2cc(C(=O)NC3(C(=O)O)Cc4ccccc4C3)ccc2OC)cc1` [Example 60], the pIC50 was 4.52 to 6.00. In the case of `COc1ccc(C(=O)NC2(C(=O)O)Cc3ccccc3C2)cc1OCCCc1ccccc1` [Example 151], the pIC50 is 4.52 to 6.00. The value for `COc1ccc(C(=O)NC2(C(=O)O)Cc3ccccc3C2)cc1-c1cccc(CNC(C)=O)c1` [Example 339] was 6.00 to 7.00; that for `COc1ccc(C(=O)NC2(C(=O)O)Cc3ccccc3C2)cc1OCCc1nc(-c2ccccc2)oc1C` [Example 70] was 4.52 to 6.00; that for `COc1ccc(C(=O)NC2(C(=O)O)Cc3ccccc3C2)cc1-c1cncc(Cl)c1` [Example 282, 2-[3-(5-chloro-pyridin-3-yl)-4-methoxy-benzoylamino]-indane-2-carboxylic acid] was 6.00 to 7.00. Take `COc1ccc(C(=O)NC2(C(=O)O)Cc3ccc(C(N)=O)cc3C2)cc1OCCc1cccc(C)c1` (stereo not drawn) [Example 219, 5-Carbamoyl-2-[4-methoxy-3-(2-m-tolyl-ethoxy)-benzoylamino]-indane-2-carboxylic acid]: the pIC50 was 4.52 to 6.00. On to `COc1ccc(C(=O)NC2(C(=O)O)Cc3ccccc3C2)cc1C(=O)c1ccccc1C` [Example 240, 2-[4-Methoxy-3-(2-methyl-benzoyl)-benzoylamino]-indane-2-carboxylic acid], for which the pIC50 is 4.52 to 6.00.

With `COc1ccc(C(=O)NC2(C(=O)O)Cc3ccccc3C2)cc1OCc1nc2ccccc2n1C` [Example 69], the pIC50 is 4.52 to 6.00. Regarding `COc1ncc(C(=O)NC2(C(=O)O)Cc3ccccc3C2)cc1-c1cc(Cl)cc(C(F)(F)F)c1` [Example 235], the pIC50 is more than 7.00. In the case of `COc1ccc(C(=O)NC2(C(=O)O)Cc3ccccc3C2)cc1OCCc1cc(F)ccc1F` [Example 204, 2-{3-[2-(2,5-Difluoro-phenyl)-ethoxy]-4-methoxy-benzoylamino}-indane-2-carboxylic acid], the pIC50 is more than 7.00.

For the molecule `COc1ccc(C(=O)NC2(C(=O)O)Cc3ccccc3C2)cc1NCC(C)c1ccccc1` (stereo not drawn) [Example 124], the pIC50 was 6.00 to 7.00. In the case of `COc1ccc(C(=O)NC2(C(=O)O)Cc3ccc(F)cc3C2)cc1OCCc1cccc(C)c1` (stereo not drawn) [Example 157, 5-Fluoro-2-[4-methoxy-3-(2-m-tolyl-ethoxy)-benzoylamino]-indane-2-carboxylic acid], the pIC50 is more than 7.00.

As to `COc1ccc(C(=O)NC2(C(=O)O)Cc3ccccc3C2)cc1OCCc1cccc(C(F)(F)F)c1` [Example 127, 2-{4-methoxy-3-[2-(3-trifluoromethyl-phenyl)-ethoxy]-benzoylamino}-indane-2-carboxylic acid], the pIC50 is more than 7.00. Turning to `N#Cc1ccc(C(=O)NC2(C(=O)O)Cc3ccccc3C2)cc1NCCc1ccccc1F` [Example 175, 2-{4-Cyano-3-[2-(2-fluoro-phenyl)-ethylamino]-benzoylamino}-indane-2-carboxylic acid], the pIC50 was 4.52 to 6.00. The same measure for `COc1ccc(C(=O)NC2(C(=O)O)Cc3ccccc3C2)cc1OCCC(C)C` [Example 36]: 4.52 to 6.00; for `COc1ccc(C(=O)NC2(C(=O)O)Cc3ccc(Br)cc3C2)cc1OCCc1cccc(C)c1` (stereo not drawn) [Example 156, 5-Bromo-2-[4-methoxy-3-(2-m-tolyl-ethoxy)-benzoylamino]-indane-2-carboxylic acid]: more than 7.00; for `COc1ccc(-c2cc(C(=O)NC3(C(=O)O)Cc4ccccc4C3)ccc2OC)cc1Cl` [Example 325]: more than 7.00. The same measure for `COc1ccc(C(=O)NC2(C(=O)O)Cc3nccnc3C2)cc1OCCc1cccc(C)c1` [Example 207, 6-[4-Methoxy-3-(2-m-tolyl-ethoxy)-benzoylamino]-6,7-dihydro-5H-cyclopentapyrazine-6-carboxylic acid]: 4.52 to 6.00; for `COc1ccc(C(=O)NC2(C(=O)O)Cc3ccccc3C2)cc1OCC1CCCN(C)C1` (stereo not drawn) [Example 48]: 4.52 to 6.00. The value for `COc1ccc(C(=O)NC2(C(=O)O)Cc3ccccc3C2)cc1OCCc1cccc(CC(C)(C)O)c1` [Example 249, 2-(3-{2-[3-(2-Hydroxy-2-methyl-propyl)-phenyl]-ethoxy}-4-methoxy-benzoylamino)-indane-2-carboxylic acid] was more than 7.00. Regarding `COc1ccc(C(=O)NC2(C(=O)O)Cc3ccccc3C2)cc1OS(=O)(=O)c1cccc(C)c1` [Example 111, 2-[3-(toluene-3-sulfonyloxy)-4-methoxy-benzoylamino]-indane-2-carboxylic acid], the pIC50 is 4.52 to 6.00. The same measure for `COc1ccc(C(=O)NC2(C(=O)O)Cc3ccccc3C2)cc1-c1cccc(OCC(F)(F)F)c1` [Example 346]: 6.00 to 7.00; for `CCCOc1cccc(-c2cc(C(=O)NC3(C(=O)O)Cc4ccccc4C3)ccc2OC)c1` [Example 318]: more than 7.00.

Take `COc1ccc(C(=O)NC2(C(=O)O)Cc3ccccc3C2)cc1OCCCN1CCCCC1` [Example 85]: the pIC50 was 4.52 to 6.00. In the case of `COc1ncc(C(=O)NC2(C(=O)O)Cc3ccccc3C2)cc1-c1ccc(Cl)cc1` [Example 226], the pIC50 is more than 7.00.
